According to patent US8129371B2, “Thienopyrimidine and pyrazolopyrimidine compounds and their use as mTOR kinase and PI3 kinase inhibitors” (Wyeth LLC, priority 2007, dated 2012):

Legend:
[1] = target: T1, Human mTOR (FLAG-TOR) (Homo sapiens, UniProt P42345); experiment: Human mTOR kinase assay with purified enzyme, DELFIA format; format: biochemical
T1 construct: FLAG
Outline: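 Purified FLAG-mTOR in HEPES pH 7.4 buffer with 10 mM MnCl2 was preincubated with inhibitor and reacted 2 h at room temperature with His6-S6K substrate, then stopped with EDTA/EGTA. Phospho-T389 S6K detected by DELFIA with Eu-labelled antibody (40 ng/mL) after plate capture; inhibition computed from signal.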

[2] = test system: breast line MDA468; experiment: In vitro cell culture growth assay (MTS), MDA468; format: cell-based; details: Homo sapiens, 72 h, MDA468 cells, three days after drug treatment
Outline: (§1)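 Following a one-day attachment period, cells received inhibitors for 3 days. MTS metabolism by viable cells was quantified at 490 nm absorbance and converted to percent of same-plate vehicle control growth.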

[3] = target: T2, PI3K (Homo sapiens, UniProt P42336); experiment: Fluorescence polarization assay for PI3K; format: biochemical; details: PI3 Kinase α; read-out: PI3 Kinase α IC50
T2 construct: PI3 Kinase α IC50; other: PI3 Kinase α; other: PI3 Kinase α isoform, fluorescence polarization
Outline: (§2)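 PI3K was preincubated with compound (final DMSO 1%), and the reaction was started with PIP2/ATP substrate and run 30–60 min. It was stopped with a detector mix giving 10 nM red probe and 70 nM GST-GRP.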

[4] = target: T3, PI3K (Homo sapiens, UniProt P48736); experiment: Fluorescence polarization assay for PI3K; format: biochemical; details: PI3 Kinase γ; read-out: PI3 Kinase γ IC50
T3 construct: PI3 Kinase γ IC50; other: PI3 Kinase γ; other: PI3 Kinase γ isoform, fluorescence polarization
Outline: as §2

[5] = test system: prostate line LNCap; experiment: In vitro cell culture growth assay (MTS), LNCap; format: cell-based; details: Homo sapiens, LNCaP, 72 h, LNCap cells, three days after drug treatment
Outline: as §1

T3 sequence (P48736 whole entry, canonical isoform): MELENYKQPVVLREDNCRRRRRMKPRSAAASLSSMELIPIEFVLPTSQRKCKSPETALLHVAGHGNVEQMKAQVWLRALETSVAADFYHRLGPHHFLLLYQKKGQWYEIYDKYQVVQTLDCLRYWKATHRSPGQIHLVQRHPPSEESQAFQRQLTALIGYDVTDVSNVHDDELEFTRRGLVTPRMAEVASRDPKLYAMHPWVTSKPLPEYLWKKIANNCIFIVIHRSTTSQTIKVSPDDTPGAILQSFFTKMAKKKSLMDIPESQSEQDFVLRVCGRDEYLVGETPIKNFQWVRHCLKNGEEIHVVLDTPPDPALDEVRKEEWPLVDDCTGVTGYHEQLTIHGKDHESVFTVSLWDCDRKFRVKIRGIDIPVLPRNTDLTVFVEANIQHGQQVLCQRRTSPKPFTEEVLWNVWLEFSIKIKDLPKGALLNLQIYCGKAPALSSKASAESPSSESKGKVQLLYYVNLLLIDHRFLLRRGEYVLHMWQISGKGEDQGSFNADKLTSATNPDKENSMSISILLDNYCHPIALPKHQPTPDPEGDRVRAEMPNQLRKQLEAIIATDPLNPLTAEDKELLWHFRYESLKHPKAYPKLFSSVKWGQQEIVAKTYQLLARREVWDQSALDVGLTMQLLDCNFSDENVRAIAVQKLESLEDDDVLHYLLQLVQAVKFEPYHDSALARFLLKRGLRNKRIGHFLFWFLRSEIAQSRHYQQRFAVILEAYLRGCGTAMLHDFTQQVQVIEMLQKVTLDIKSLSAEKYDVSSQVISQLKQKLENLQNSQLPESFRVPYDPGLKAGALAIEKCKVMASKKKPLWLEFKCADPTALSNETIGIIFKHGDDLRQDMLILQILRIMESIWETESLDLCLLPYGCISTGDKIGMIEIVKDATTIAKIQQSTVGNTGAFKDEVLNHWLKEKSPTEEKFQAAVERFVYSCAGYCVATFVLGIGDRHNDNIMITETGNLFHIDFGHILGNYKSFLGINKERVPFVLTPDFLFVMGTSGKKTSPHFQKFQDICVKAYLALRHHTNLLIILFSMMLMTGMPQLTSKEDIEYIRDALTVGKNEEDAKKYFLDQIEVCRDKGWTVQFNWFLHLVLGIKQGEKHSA
T2 sequence (P42336 whole entry, canonical isoform): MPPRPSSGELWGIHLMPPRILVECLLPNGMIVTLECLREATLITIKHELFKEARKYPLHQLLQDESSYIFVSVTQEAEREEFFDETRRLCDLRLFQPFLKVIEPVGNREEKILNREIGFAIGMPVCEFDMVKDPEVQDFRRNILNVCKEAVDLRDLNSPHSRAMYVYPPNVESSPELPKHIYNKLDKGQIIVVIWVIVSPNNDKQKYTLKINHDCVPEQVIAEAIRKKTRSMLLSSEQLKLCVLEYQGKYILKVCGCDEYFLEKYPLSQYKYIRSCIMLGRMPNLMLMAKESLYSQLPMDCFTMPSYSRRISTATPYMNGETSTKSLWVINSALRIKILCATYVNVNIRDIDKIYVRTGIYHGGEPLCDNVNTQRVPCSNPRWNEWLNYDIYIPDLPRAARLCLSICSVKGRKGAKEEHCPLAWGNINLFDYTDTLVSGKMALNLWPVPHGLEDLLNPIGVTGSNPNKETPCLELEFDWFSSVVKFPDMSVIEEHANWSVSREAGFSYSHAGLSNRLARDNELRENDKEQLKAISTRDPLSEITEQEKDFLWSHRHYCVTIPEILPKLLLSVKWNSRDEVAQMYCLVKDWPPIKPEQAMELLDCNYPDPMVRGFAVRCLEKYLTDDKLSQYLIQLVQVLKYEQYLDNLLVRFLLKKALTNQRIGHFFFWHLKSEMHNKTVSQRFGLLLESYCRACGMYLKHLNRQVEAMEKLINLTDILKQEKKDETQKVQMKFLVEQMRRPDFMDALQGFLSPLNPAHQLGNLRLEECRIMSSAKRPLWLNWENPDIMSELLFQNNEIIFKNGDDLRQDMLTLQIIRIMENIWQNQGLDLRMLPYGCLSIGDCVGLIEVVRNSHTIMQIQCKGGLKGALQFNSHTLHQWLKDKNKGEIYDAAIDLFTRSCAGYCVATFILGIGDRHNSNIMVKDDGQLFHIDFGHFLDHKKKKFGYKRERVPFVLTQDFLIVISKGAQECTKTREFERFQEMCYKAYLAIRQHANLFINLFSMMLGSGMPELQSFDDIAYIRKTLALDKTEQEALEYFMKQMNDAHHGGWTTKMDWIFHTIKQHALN

Structure (SMILES) | IC50 [1] [nM] | IC50 [2] [nM] | IC50 [3] [nM] | IC50 [4] [nM] | IC50 [5] [nM]
CCn1ncc2c(N3CC4CCC(C3)O4)nc(-c3ccc(NC(=O)OCCO)cc3)nc21 [Example 45, 2-hydroxyethyl {4-[1-ethyl-4-(8-oxa-3-azabicyclo[3.2.1]oct-3-yl)-1H-pyrazolo[3,4-d]pyrimidin-6-yl]phenyl}carbamate] | 1.2 | 270 | 1610 | > 10000 | 100
CCn1ncc2c(N3CC4CCC(C3)O4)nc(-c3ccc(NC(=O)Nc4ccccc4)cc3)nc21 [Example 46, 1-{4-[1-ethyl-4-(8-oxa-3-azabicyclo[3.2.1]oct-3-yl)-1H-pyrazolo[3,4-d]pyrimidin-6-yl]phenyl}-3-phenylurea] | 0.3 | 12 | 68 | 1610 | 0.8
CCn1ncc2c(N3CC4CCC(C3)O4)nc(-c3ccc(NC(=O)Nc4cccnc4)cc3)nc21 [Example 47, 1-{4-[1-ethyl-4-(8-oxa-3-azabicyclo[3.2.1]oct-3-yl)-1H-pyrazolo[3,4-d]pyrimidin-6-yl]phenyl}-3-pyridin-3-ylurea] | 0.11 | 1.2 | 160 | 2720 | < 0.8
CCn1ncc2c(N3CC4CCC(C3)O4)nc(-c3ccc(NC(=O)Nc4ccncc4)cc3)nc21 [Example 48, 1-{4-[1-ethyl-4-(8-oxa-3-azabicyclo[3.2.1]oct-3-yl)-1H-pyrazolo[3,4-d]pyrimidin-6-yl]phenyl}-3-pyridin-4-ylurea] | 0.16 | < 0.8 | 134 | 1120 | < 0.8
CCn1ncc2c(N3CC4CCC(C3)O4)nc(-c3ccc(NC(=O)NCCCNC)cc3)nc21 [Example 49, 1-{4-[1-ethyl-4-(8-oxa-3-azabicyclo[3.2.1]oct-3-yl)-1H-pyrazolo[3,4-d]pyrimidin-6-yl]phenyl}-3-[3-(methylamino)propyl]urea] | 14 | 3000 | 968 | > 10000 | 1800
CNC(=O)Nc1ccc(-c2nc(N3CC4CCC(C3)O4)c3cnn(C)c3n2)cc1 [Example 50, 1-methyl-3-{4-[1-methyl-4-(8-oxa-3-azabicyclo[3.2.1]oct-3-yl)-1H-pyrazolo[3,4-d]pyrimidin-6-yl]phenyl}urea] | 2 | 700 | 247 | 6290 | 170
CCNC(=O)Nc1ccc(-c2nc(N3CC4CCC(C3)O4)c3cnn(C)c3n2)cc1 [Example 51, 1-ethyl-3-{4-[1-methyl-4-(8-oxa-3-azabicyclo[3.2.1]oct-3-yl)-1H-pyrazolo[3,4-d]pyrimidin-6-yl]phenyl}urea] | 1.6 | 390 | 799 | 7910 | 46
Cn1ncc2c(N3CC4CCC(C3)O4)nc(-c3ccc(NC(=O)NCCF)cc3)nc21 [Example 52, 1-(2-fluoroethyl)-3-{4-[1-methyl-4-(8-oxa-3-azabicyclo[3.2.1]oct-3-yl)-1H-pyrazolo[3,4-d]pyrimidin-6-yl]phenyl}urea] | 1 | 500 | 877 | 9500 | 100
Cn1ncc2c(N3CC4CCC(C3)O4)nc(-c3ccc(NC(=O)NC4CC4)cc3)nc21 [Example 53, 1-cyclopropyl-3-{4-[1-methyl-4-(8-oxa-3-azabicyclo[3.2.1]oct-3-yl)-1H-pyrazolo[3,4-d]pyrimidin-6-yl]phenyl}urea] | 1.4 | 800 | 845 | 8820 | 72
Cn1ncc2c(N3CC4CCC(C3)O4)nc(-c3ccc(NC(=O)NCCO)cc3)nc21 [Example 54, 1-(2-hydroxyethyl)-3-{4-[1-methyl-4-(8-oxa-3-azabicyclo[3.2.1]oct-3-yl)-1H-pyrazolo[3,4-d]pyrimidin-6-yl]phenyl}urea] | 1.1 | 1200 | 437 | 5790 | 410
Cn1ncc2c(N3CC4CCC(C3)O4)nc(-c3ccc(NC(=O)Nc4ccccc4)cc3)nc21 [Example 55, 1-{4-[1-methyl-4-(8-oxa-3-azabicyclo[3.2.1]oct-3-yl)-1H-pyrazolo[3,4-d]pyrimidin-6-yl]phenyl}-3-phenylurea] | 0.66 | 32 | 74 | 648 | 0.8
Cn1ncc2c(N3CC4CCC(C3)O4)nc(-c3ccc(NC(=O)Nc4cccnc4)cc3)nc21 [Example 56, 1-{4-[1-methyl-4-(8-oxa-3-azabicyclo[3.2.1]oct-3-yl)-1H-pyrazolo[3,4-d]pyrimidin-6-yl]phenyl}-3-pyridin-3-ylurea] | 0.27 | 5 | 227 | 579 | 0.7
Cn1ncc2c(N3CC4CCC(C3)O4)nc(-c3ccc(NC(=O)Nc4ccncc4)cc3)nc21 [Example 57, 1-{4-[1-methyl-4-(8-oxa-3-azabicyclo[3.2.1]oct-3-yl)-1H-pyrazolo[3,4-d]pyrimidin-6-yl]phenyl}-3-pyridin-4-ylurea] | 0.18 | 9 | 162 | 782 | 0.8
CN(C)CCNC(=O)Nc1ccc(-c2nc(N3CC4CCC(C3)O4)c3cnn(C)c3n2)cc1 [Example 58, 1-[2-(dimethylamino)ethyl]-3-{4-[1-methyl-4-(8-oxa-3-azabicyclo[3.2.1]oct-3-yl)-1H-pyrazolo[3,4-d]pyrimidin-6-yl]phenyl}urea] | 99 | 2800 | 307 | 1120 | 700
CN(C)CCCNC(=O)Nc1ccc(-c2nc(N3CC4CCC(C3)O4)c3cnn(C)c3n2)cc1 [Example 59, 1-[3-(dimethylamino)propyl]-3-{4-[1-methyl-4-(8-oxa-3-azabicyclo[3.2.1]oct-3-yl)-1H-pyrazolo[3,4-d]pyrimidin-6-yl]phenyl}urea] | 100 | 8800 | 1700 | > 10000 | 2900
COC(=O)Nc1ccc(-c2nc(N3CC4CCC(C3)O4)c3cnn(C)c3n2)cc1 [Example 60, methyl {4-[1-methyl-4-(8-oxa-3-azabicyclo[3.2.1]oct-3-yl)-1H-pyrazolo[3,4-d]pyrimidin-6-yl]phenyl}carbamate] | 28 | 6800 | 3320 | > 10000 | 1050
Cn1ncc2c(N3CC4CCC(C3)O4)nc(-c3cccc(O)c3)nc21 [Example 61, 3-[1-methyl-4-(8-oxa-3-azabicyclo[3.2.1]oct-3-yl)-1H-pyrazolo[3,4-d]pyrimidin-6-yl]phenol] | 90 | 7600 | 903 | 1840 | 1800
CC(C)OC(=O)N1CCC(n2ncc3c(N4CC5CCC(C4)O5)nc(-c4ccc(N)cc4)nc32)CC1 [Example 65, isopropyl 4-[6-(4-aminophenyl)-4-(8-oxa-3-azabicyclo[3.2.1]oct-3-yl)-1H-pyrazolo[3,4-d]pyrimidin-1-yl]piperidine-1-carboxylate] | 46 | 7000 | 4630 | > 10000 | 1200
CNC(=O)Nc1ccc(-c2nc(N3CC4CCC(C3)O4)c3cnn(C4CCN(C(=O)OC(C)C)CC4)c3n2)cc1 [Example 66, isopropyl 4-[6-{4-[(methylcarbamoyl)amino]phenyl}-4-(8-oxa-3-azabicyclo[3.2.1]oct-3-yl)-1H-pyrazolo[3,4-d]pyrimidin-1-yl]piperidine-1-carboxylate] | 0.22 | 84 | 2020 | > 10000 | 6
CCNC(=O)Nc1ccc(-c2nc(N3CC4CCC(C3)O4)c3cnn(C4CCN(C(=O)OC(C)C)CC4)c3n2)cc1 [Example 67, isopropyl 4-[6-{4-[(ethylcarbamoyl)amino]phenyl}-4-(8-oxa-3-azabicyclo[3.2.1]oct-3-yl)-1H-pyrazolo[3,4-d]pyrimidin-1-yl]piperidine-1-carboxylate] | 0.23 | 150 | 2460 | 9500 | 17
CC(C)OC(=O)N1CCC(n2ncc3c(N4CC5CCC(C4)O5)nc(-c4ccc(NC(=O)NCCF)cc4)nc32)CC1 [Example 68, isopropyl 4-[6-(4-{[(2-fluoroethyl)carbamoyl]amino}phenyl)-4-(8-oxa-3-azabicyclo[3.2.1]oct-3-yl)-1H-pyrazolo[3,4-d]pyrimidin-1-yl]piperidine-1-carboxylate] | 0.27 | 180 | 3150 | > 10000 | 18
CC(C)OC(=O)N1CCC(n2ncc3c(N4CC5CCC(C4)O5)nc(-c4ccc(NC(=O)NCCO)cc4)nc32)CC1 [Example 69, isopropyl 4-[6-(4-{[(2-hydroxyethyl)carbamoyl]amino}phenyl)-4-(8-oxa-3-azabicyclo[3.2.1]oct-3-yl)-1H-pyrazolo[3,4-d]pyrimidin-1-yl]piperidine-1-carboxylate] | 0.17 | 195 | 1530 | 11000 | 100
